Source: patent publication US12226386B2, “Compositions and methods for treating biofilms” (The Regents of the University of California, priority 2018, dated 2025)

Key:
C. albicans biofilms = test: in vitro biofilm disruption assay, fungal; type: cell-based, Candida albicans; conditions: 1% amino acid, p<0.001
Procedure: Two types of biofilm assays were performed: a sustained inhibition assay and a disruption assay.
For fungal biofilm assays, all solutions were prepared in RPMI 1640 medium. All bacterial biofilm solutions were prepared in Tryptic Soy Broth (TSB), supplemented with 1% glucose (henceforth referred to as TSB-G). All subsequent procedures were performed in a manner that maintained sterility. A solution of each amino acid to be tested was prepared in weight to volume concentrations ranging from 0.1-5.0%. Amino acids were also tested in combinations. Compound solutions were homogenized with gentle agitation in the dark (4° C., 24 hours) before use.
Fungal strains were streaked on Yeast Peptone Dextrose (YPD) agar plates and incubated at 30° C. for 48 hours. A single colony from each strain to be tested was inoculated into YPD broth and grown for 12 hours, at 30° C., shaking at 225 rpm. For the fungal biofilm inhibition assay, 1 μl of saturated overnight cell culture was added to either 80 μL of RPMI-1640 or RPMI-1640 supplemented with the amino acid compound solution to be tested, in a 384-well plate. […] Media was carefully aspirated and the biofilm was measured by optical density at 600 nm. Twelve replicates were performed for each tested condition and the reported values are normalized to the control (RPMI-1640 media only). For the fungal biofilm disruption assays, 80 μL of RPMI-1640 was added to the plate, along with 1 μL of overnight cell culture. […] Loosely bound cells were washed once with PBS and 80 μL of RPMI-1640 was added to the plate. […] Media was carefully aspirated from the mature biofilm and 80 μL of RPMI-1640, or RPMI-1640 supplemented with the amino acid compound solution to be tested, was gently added to the plate. […] Media was carefully aspirated and the biofilm was measured by optical density at 600 nm. Twelve replicates were performed for each tested condition and the reported values are normalized to the control (RPMI-1640 media only).
The cells were allowed to adhere to the plate for 90 minutes at 37° C. with shaking (350 rpm). […] The plate was further incubated for 24 hours at 37° C. with shaking (350 rpm). […] The plate was further incubated for 24 hours at 37° C. with shaking (350 rpm). Media was carefully aspirated and the biofilm was measured by optical density at 600 nm.

[1] = tested on: fungal biofilms (C. albicans); test: biofilm assays (sustained inhibition and/or disruption), fungal; type: cell-based, Candida albicans; conditions: Tables 4 and 5
Procedure: Other amino acids in the blood of animals could combat bacterial and fungal biofilm and therefore may be useful in treating these bacterial and fungal infections that would lie on the external surfaces of infected animals such as humans and could also be used to combat these pathogens on instruments and surfaces that need to be treated. Two types of biofilm assays were performed: a sustained inhibition assay and a disruption assay. The sustained inhibition assay assessed the compound's ability to prevent biofilm development throughout all stages of biofilm formation, while the disruption assay assessed the compound's ability to break up an existing mature biofilm. For fungal biofilm assays, all solutions were prepared in RPMI 1640 medium. All bacterial biofilm solutions were prepared in Tryptic Soy Broth (TSB), supplemented with 1% glucose (henceforth referred to as TSB-G). All subsequent procedures were performed in a manner that maintained sterility. […] Amino acids were also tested in combinations. Compound solutions were homogenized with gentle agitation in the dark (4° C., 24 hours) before use. Fungal strains were streaked on Yeast Peptone Dextrose (YPD) agar plates and incubated at 30° C. for 48 hours. A single colony from each strain to be tested was inoculated into YPD broth and grown for 12 hours, at 30° C., shaking at 225 rpm. For the fungal biofilm inhibition assay, 1 μl of saturated overnight cell culture was added to either 80 μL of RPMI-1640 or RPMI-1640 supplemented with the amino acid compound solution to be tested, in a 384-well plate. The cells were allowed to adhere to the plate for 90 minutes at 37° C. shaking at 350 rpm. Loosely bound cells were washed once with phosphate buffered saline (PBS) and 80 μl of RPMI-1640, or RPMI-1640 supplemented with the amino acid compound solution was added to the plate. The plate was further incubated for 24 hours at 37° C. shaking at 350 rpm. Media was carefully aspirated and the biofilm was measured by optical density at 600 nm. Twelve replicates were performed for each tested condition and the reported values are normalized to the control (RPMI-1640 media only). For the fungal biofilm disruption assays, 80 μL of RPMI-1640 was added to the plate, along with 1 μL of overnight cell culture. The cells were allowed to adhere to the plate for 90 minutes at 37° C. shaking at 350 rpm. Loosely bound cells were washed once with PBS and 80 μL of RPMI-1640 was added to the plate. The plate was further incubated for 24 hours at 37° C. shaking at 350 rpm. Media was carefully aspirated from the mature biofilm and 80 μL of RPMI-1640, or RPMI-1640 supplemented with the amino acid compound solution to be tested, was gently added to the plate. The plate was further incubated for 24 hours at 37° C. shaking at 350 rpm. Media was carefully aspirated and the biofilm was measured by optical density at 600 nm. Twelve replicates were performed for each tested condition and the reported values are normalized to the control (RPMI-1640 media only).

Row | SMILES | Reduce F Biofilm (C. albicans biofilms) | effect on C. albicans biofilms in inhibition and disruption assays [1]
1 | N[C@@H](CCC(=O)O)C(=O)O [Glutamic Acid, L-glutamic acid] | ●● (two dots [i.e. ●●] signifies major effect (greater than about 30% change)) | both inhibited and disrupted
2 | N[C@@H](CS)C(=O)O [Cysteine, L-cysteine] | ●● (two dots [i.e. ●●] signifies major effect (greater than about 30% change)) | both inhibited and disrupted
3 | N[C@@H](CC(=O)O)C(=O)O [Aspartic Acid, L-aspartic acid] | ●● (two dots [i.e. ●●] signifies major effect (greater than about 30% change)) | both inhibited and disrupted
